# From ChEMBL document CHEMBL1201862, “PubChem BioAssay data set” (2004)
# Active and inactive are the calls of the source.
# What was measured:
# [1] = tested on: INS1; experiment: suppression of NO production in INS-1E cells – cell-based, Griess absorbance, dry powder, set 2, dose response (AID 488868); type: functional; conditions: Rattus norvegicus
# [2] = suppression of NO production in INS-1E cells – cell-based, Griess absorbance, dry powder, set 3, dose response (AID 488870); type: functional; conditions: Rattus norvegicus
# [3] = target: T1, Type-1 angiotensin II receptor (Homo sapiens, UniProt P30556); experiment: antagonism of angiotensin II type 1 receptor – cell-based, uHTS hits, selectivity assay for APJ receptor antagonist project, dose response (AID 463214); type: functional;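 also: antagonist potency against angiotensin II stimulated AT1 response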
# T1 sequence (P30556 whole entry): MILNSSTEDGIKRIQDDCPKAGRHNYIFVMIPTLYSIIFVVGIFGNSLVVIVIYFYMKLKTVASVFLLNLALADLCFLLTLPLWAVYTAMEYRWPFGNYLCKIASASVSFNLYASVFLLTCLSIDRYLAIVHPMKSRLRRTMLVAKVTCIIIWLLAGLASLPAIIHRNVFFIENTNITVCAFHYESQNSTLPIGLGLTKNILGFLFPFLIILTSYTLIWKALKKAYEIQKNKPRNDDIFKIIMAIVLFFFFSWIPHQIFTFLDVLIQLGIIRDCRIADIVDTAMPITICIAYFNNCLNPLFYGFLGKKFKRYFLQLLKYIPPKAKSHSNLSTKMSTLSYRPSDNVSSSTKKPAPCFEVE
# [4] = target: Beta-galactosidase (Escherichia coli, UniProt Q8VNN2); experiment: PubChem AID 485352; type: functional
# [5] = target: Beta Lactamase (Pseudomonas aeruginosa, UniProt Q932Y6); experiment: BLA reporter interference, concentration series – BLA reporter cells, FRET fluorescence, artefact control for TLR9-MyD88 binding inhibitor project, dose response (AID 588341); type: cell-based;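 also: cell based assay in CHO-K1 cells stably expressing beta-lactamase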
# [6] = tested on: CHO; experiment: CHO cell viability loss, potency – luminescence, cytotoxicity control for TLR9-MyD88 binding inhibitor project, dose response (AID 588339); type: functional, cell-based, hamster; conditions: Cricetulus griseus;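 also: CHO cells stably coexpressing TLR9 and MyD88 fusions from primary screen; compound exposure lasted 48 hours before viability readout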
# [7] = Luminescence Cell-Based Dose Confirmation to Identify Activators of 5'UTR Stem-Loop Driven Alpha-Synuclein mRNA Translation in H4 Neuroglioblastoma Cells. [Related pubchem assays: 1829 (Project Summary), 1814 (Primary HTS)]; type: functional
# [8] = Luminescence Cell-Based Dose Response HTS to Identify Activators of Luciferase Translation or Activity in H4 […] Cells. [Related pubchem assays: 1829 (Project Summary), 1814 (Primary HTS)]; type: functional
# [9] = viability loss in HepG2 hepatoma cells – cell-based, ATP luminescence, cherry-pick, activator set 2, cytotoxicity control, dose response (AID 1053143); type: functional
# [10] = Luminescence Cell-Based Dose Response to Identify Activators of Luciferase Translation or Activity in H4-C Neuroglioblastoma Cells. [Related pubchem assays: 1829 (Project Summary), 1814 (Primary HTS)]; type: functional
# [11] = tested on: H4; experiment: Luminescence Cell-Based Dose Response HTS to Identify Activators of 5'UTR Stem-Loop Driven Prion Protein mRNA Translation in H4 Neuroglioblastoma Cells. [Related pubchem assays: 1829 (Project Summary), 1814 (Primary HTS)]; type: functional; conditions: Homo sapiens
# [12] = Luminescence Cell-Based Dose Response to Identify Activators of 5'UTR Stem-Loop Driven Prion Protein mRNA Translation in H4-C Neuroglioblastoma Cells. [Related pubchem assays: 1829 (Project Summary), 1814 (Primary HTS)]; type: functional
# [13] = tested on: HEK293; experiment: cells; type: functional, cell-based; conditions: Homo sapiens
# [14] = target: T2, Nuclear receptor subfamily 0 group B member 1 (Homo sapiens, UniProt P51843); experiment: Luminescence-based cell-based high throughput dose response assay for inhibitors of the orphan nuclear receptor subfamily 0, group B, member 1 (DAX1; NR0B1). [Related pubchem assays (depositor defined):AID504766, AID504790]; type: functional
# T2 sequence (P51843 whole entry): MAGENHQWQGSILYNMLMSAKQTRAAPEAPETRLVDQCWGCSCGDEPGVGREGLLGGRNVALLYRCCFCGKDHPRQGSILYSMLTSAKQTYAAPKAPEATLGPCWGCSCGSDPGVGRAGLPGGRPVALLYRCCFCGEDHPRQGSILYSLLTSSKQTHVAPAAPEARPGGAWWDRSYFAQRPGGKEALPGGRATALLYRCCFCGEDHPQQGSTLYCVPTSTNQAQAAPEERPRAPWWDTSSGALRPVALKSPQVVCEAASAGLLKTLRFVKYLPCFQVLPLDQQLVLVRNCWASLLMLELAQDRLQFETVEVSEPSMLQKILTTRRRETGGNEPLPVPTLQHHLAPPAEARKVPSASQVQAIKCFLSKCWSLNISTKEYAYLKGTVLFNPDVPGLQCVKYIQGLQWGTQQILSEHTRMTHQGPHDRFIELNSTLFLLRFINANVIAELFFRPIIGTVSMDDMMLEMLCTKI
# [15] = Luminescence Cell-Based Dose Confirmation HTS to Identify Activators of 5'UTR Stem-Loop Driven Alpha-Synuclein mRNA Translation in H4 Neuroglioblastoma Cells. [Related pubchem assays: 1829 (Project Summary), 1814 (Primary HTS)]; type: functional
# [16] = target: DNA topoisomerase (Yersinia pestis, UniProt A0A2S9PM60); experiment: Yersinia topoisomerase I cleavage product accumulation – biochemical, cherry-pick, dose response (AID 588525)
# [17] = target: DNA dC->dU-editing enzyme APOBEC-3G (Homo sapiens, UniProt Q9HC16); experiment: inhibition of APOBEC3G ssDNA deamination – biochemical, fluorescence, single-stranded DNA substrate, SAR follow-up (AID 602136); type: functional; conditions: read-out: IC50_Mean
# [18] = target: DNA dC->dU-editing enzyme APOBEC-3A (Homo sapiens, UniProt P31941); experiment: SAR analysis of small molecule inhibitors of APOBEC3A DNA Deaminase via a fluorescence-based single-stranded DNA deaminase assay.; type: functional; conditions: read-out: IC50_Mean
# [19] = cells; type: functional
# [20] = target: T3, V-type proton ATPase subunit c' (Saccharomyces cerevisiae S288c, UniProt P32842); experiment: Dose Response of Small Molecules that Regulate V-ATPase Proton Transport in Yeast using pHLuorin, Cherry Pick 2.; type: functional; conditions: read-out: EC50_MICROM
# [21] = target: T3, V-type proton ATPase subunit c'; experiment: Dose Response with BCECF Assay for V-ATPase inhibitors that increase vacuolar pH, Powder Set 1.; type: functional; conditions: read-out: EC50_MICROM
# [22] = target: T4, Apoptotic protease-activating factor 1 (Homo sapiens, UniProt O14727); type: functional
# T4 sequence (O14727 whole entry): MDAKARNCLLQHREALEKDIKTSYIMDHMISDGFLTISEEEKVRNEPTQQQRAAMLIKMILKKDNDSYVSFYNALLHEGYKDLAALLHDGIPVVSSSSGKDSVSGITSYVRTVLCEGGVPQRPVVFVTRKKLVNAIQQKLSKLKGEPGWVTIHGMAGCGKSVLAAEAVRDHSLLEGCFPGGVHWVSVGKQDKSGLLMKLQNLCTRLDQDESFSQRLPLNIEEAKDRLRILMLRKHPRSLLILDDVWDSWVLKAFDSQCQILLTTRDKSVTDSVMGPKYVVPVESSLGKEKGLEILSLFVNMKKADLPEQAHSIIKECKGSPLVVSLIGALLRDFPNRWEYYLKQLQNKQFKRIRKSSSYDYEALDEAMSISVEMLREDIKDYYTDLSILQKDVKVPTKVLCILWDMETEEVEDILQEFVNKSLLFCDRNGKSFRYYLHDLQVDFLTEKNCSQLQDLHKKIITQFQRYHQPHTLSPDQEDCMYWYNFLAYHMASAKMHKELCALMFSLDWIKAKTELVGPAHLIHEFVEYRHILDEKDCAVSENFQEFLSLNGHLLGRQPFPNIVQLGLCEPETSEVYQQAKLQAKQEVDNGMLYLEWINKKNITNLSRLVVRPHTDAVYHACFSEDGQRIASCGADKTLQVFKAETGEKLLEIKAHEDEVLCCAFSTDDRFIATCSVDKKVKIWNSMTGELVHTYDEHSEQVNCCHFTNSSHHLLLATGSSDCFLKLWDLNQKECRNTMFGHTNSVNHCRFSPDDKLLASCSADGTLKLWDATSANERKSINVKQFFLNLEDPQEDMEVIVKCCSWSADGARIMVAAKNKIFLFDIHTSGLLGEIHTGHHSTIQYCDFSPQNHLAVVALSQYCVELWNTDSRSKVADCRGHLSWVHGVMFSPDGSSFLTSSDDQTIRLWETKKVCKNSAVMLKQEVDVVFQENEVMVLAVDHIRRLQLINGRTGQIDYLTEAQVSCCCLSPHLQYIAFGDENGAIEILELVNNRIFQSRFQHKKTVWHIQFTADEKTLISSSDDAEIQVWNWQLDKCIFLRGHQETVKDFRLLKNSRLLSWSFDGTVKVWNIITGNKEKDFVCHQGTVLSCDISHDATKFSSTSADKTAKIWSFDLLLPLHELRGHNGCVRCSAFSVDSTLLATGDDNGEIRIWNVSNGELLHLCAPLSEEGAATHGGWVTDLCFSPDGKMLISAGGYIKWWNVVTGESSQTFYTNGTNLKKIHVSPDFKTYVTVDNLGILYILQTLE
# [23] = target: T5, Histone-lysine N-methyltransferase NSD2 (Homo sapiens, UniProt O96028); type: biochemical
# T5 sequence (O96028 whole entry): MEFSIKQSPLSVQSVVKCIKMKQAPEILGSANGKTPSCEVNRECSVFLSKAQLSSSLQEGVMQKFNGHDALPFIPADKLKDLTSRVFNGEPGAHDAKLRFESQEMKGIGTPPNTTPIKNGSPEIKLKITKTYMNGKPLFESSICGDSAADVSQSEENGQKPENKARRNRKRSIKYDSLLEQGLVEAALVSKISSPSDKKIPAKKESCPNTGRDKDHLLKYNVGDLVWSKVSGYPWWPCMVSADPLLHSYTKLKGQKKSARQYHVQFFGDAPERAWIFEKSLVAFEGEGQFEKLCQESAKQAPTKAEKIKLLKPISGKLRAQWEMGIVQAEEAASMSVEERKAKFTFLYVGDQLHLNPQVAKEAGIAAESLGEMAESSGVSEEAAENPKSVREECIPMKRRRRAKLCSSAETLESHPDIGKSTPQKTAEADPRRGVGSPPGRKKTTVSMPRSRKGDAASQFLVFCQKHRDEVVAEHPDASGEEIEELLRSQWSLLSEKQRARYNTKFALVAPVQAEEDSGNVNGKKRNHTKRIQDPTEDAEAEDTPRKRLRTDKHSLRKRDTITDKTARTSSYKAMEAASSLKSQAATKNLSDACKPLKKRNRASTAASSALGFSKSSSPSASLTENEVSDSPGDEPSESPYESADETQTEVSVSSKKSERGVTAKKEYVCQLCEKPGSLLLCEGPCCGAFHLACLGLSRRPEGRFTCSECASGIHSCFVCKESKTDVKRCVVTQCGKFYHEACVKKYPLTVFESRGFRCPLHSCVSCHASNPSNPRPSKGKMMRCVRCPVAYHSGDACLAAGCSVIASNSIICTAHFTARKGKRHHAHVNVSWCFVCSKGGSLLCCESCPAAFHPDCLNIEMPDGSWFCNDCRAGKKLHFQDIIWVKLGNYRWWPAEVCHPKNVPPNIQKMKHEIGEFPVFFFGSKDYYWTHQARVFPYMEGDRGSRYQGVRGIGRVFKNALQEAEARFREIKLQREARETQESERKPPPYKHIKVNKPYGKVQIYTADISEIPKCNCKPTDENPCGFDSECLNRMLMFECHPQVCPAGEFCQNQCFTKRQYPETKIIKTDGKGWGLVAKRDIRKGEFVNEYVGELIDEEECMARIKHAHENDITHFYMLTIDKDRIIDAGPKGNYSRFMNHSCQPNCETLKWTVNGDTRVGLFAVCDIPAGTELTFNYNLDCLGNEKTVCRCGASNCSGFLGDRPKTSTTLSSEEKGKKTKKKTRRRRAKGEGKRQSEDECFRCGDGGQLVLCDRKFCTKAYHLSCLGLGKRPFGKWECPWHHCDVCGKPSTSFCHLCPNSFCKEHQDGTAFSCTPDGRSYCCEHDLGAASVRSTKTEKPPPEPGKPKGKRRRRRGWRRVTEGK
# [24] = target: T6, Sentrin-specific protease 8 (Homo sapiens, UniProt Q96LD8); type: functional
# T6 sequence (Q96LD8 whole entry): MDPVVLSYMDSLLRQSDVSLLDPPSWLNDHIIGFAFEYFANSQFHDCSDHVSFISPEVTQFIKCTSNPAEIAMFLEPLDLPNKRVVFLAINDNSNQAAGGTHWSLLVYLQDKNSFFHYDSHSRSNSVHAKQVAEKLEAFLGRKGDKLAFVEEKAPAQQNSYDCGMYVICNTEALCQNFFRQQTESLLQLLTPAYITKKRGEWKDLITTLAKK
# [25] = target: Tyrosyl-DNA phosphodiesterase 2 (Homo sapiens, UniProt O95551); experiment: potency against TDP2 phosphodiesterase activity – biochemical, epi absorbance, IC50, dose response (AID 743297)
# [26] = target: T6, Sentrin-specific protease 8; type: functional; remark: listed apart in the source
# T3 sequence (P32842 whole entry): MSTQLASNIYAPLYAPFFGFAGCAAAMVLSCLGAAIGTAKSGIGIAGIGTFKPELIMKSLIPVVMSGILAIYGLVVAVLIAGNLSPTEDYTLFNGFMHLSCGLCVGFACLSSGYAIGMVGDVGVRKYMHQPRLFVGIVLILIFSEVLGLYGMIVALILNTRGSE
# Sequence of Beta-galactosidase (Q8VNN2 whole entry): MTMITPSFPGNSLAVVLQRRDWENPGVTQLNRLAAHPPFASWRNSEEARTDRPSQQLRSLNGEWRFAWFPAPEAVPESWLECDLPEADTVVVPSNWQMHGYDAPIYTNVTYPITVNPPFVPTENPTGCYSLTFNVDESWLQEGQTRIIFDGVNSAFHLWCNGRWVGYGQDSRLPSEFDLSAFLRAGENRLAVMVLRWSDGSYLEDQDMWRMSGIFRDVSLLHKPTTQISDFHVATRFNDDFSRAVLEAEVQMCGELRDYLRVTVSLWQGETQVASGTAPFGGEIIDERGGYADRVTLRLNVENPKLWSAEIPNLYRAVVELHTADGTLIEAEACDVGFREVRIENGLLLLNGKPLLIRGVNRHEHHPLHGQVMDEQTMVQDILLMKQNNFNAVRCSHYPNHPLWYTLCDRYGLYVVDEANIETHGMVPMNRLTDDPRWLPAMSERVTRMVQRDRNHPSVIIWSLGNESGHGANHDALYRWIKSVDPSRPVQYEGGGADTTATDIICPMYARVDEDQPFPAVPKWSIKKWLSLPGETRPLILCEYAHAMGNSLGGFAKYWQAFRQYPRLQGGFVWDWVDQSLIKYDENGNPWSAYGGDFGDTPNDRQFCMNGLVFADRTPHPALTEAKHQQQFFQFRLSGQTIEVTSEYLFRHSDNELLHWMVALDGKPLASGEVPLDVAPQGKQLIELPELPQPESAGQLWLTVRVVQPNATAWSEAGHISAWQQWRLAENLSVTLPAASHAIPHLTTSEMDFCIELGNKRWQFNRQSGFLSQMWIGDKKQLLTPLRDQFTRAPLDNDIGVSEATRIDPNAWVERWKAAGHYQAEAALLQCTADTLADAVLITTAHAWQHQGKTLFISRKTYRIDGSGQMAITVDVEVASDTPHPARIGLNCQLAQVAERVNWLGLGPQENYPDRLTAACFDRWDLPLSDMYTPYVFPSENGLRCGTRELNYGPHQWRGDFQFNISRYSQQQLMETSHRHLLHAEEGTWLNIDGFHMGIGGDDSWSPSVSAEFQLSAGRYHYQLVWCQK
# Sequence of Tyrosyl-DNA phosphodiesterase 2 (O95551 whole entry): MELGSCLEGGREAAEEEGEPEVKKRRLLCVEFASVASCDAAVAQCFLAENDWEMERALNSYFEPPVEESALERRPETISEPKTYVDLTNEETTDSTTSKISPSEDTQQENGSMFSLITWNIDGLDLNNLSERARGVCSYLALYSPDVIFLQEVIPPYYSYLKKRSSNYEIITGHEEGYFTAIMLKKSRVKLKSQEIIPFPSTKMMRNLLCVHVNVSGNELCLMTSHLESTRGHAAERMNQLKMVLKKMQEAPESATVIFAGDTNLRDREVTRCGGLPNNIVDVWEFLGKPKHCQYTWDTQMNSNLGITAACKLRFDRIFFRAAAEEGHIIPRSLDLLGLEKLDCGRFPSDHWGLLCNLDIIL
# Sequence of Beta Lactamase (Q932Y6 whole entry, the tested form may be a part): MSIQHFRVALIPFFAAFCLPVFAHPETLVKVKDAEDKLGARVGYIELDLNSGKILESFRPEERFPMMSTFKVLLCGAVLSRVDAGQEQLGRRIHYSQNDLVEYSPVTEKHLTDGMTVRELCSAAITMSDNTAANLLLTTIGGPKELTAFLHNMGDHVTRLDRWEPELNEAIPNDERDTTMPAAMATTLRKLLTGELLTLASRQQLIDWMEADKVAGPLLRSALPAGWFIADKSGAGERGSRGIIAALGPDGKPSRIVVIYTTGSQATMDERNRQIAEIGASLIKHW
# Sequence of DNA topoisomerase (A0A2S9PM60 whole entry): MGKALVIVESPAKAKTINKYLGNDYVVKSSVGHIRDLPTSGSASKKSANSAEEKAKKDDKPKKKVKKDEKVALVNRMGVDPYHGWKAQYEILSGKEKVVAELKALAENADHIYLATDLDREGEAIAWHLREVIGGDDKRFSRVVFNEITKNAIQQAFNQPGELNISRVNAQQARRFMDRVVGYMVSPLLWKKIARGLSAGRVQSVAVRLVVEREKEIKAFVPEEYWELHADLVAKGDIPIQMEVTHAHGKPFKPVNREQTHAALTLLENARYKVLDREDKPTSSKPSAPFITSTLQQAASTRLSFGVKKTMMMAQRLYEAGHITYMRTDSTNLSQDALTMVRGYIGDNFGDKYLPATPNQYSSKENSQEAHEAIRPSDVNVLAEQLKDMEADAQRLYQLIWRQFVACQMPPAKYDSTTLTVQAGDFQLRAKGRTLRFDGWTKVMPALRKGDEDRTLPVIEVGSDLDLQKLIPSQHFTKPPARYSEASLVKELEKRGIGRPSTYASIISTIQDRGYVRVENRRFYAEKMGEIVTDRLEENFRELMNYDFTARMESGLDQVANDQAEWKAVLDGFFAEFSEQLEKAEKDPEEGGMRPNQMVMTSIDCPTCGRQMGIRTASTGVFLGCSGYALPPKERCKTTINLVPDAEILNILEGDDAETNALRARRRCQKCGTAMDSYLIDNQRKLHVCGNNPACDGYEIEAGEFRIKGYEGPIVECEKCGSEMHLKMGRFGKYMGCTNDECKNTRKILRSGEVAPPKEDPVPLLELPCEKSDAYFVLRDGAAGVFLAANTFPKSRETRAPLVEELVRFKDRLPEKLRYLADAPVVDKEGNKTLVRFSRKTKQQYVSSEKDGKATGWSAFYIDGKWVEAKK
# Sequence of DNA dC->dU-editing enzyme APOBEC-3A (P31941 whole entry): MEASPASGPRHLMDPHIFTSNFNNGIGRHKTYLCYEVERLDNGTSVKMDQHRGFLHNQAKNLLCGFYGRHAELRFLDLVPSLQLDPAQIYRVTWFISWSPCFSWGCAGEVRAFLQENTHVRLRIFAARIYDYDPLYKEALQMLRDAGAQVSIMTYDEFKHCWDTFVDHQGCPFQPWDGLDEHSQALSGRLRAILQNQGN
# Sequence of DNA dC->dU-editing enzyme APOBEC-3G (Q9HC16 whole entry): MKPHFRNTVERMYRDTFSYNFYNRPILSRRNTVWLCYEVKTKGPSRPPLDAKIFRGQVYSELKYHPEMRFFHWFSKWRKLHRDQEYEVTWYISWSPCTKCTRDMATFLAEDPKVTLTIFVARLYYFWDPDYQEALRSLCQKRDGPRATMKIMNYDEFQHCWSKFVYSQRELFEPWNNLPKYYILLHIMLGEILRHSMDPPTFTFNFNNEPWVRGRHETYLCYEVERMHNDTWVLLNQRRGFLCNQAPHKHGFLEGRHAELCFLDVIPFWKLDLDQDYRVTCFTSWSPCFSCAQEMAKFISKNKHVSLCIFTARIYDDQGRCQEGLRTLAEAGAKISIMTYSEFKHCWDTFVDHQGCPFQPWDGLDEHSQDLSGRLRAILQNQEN
compound,measurement,setting,value
COc1ccc(S(=O)(=O)N(C)C[C@@H]2Oc3c(NC(=O)NC4CCCCC4)cccc3C(=O)N([C@@H](C)CO)C[C@H]2C)cc1,AC50,[1],44.5 µM (active)
same,AC50,[2],64.5 µM (active)
CN1/C(=c2/s/c(=C3/C(=O)N(c4ccccc4)N=C3Nc3ccccc3)n(C)c2=O)C(C)(C)c2ccccc21,IC50,[3],27 µM (not active)
same,EC50,[4],39.9 µM (active)
O=C(C1=NN(c2ccccc2)C2C(=O)N(c3ccc(Cl)cc3)C(=O)C12)c1ccccc1 (stereo unspecified),IC50,[5],11.8 µM (inactive)
same,IC50,[6],> 49.7 µM (inactive)
O=C(Nc1ncccc1O)c1ccc2c(c1)OCCO2,EC50,[7],0.329 µM (active)
same,EC50,[8],0.155 µM (active)
same,AC50,[9],12 µM (active)
same,EC50,[10],> 12 µM (not active)
same,EC50,[11],0.139 µM (active)
same,EC50,[12],7.24 µM (active)
same,IC50,[13],1.59 µM (active)
same,IC50,[14],> 67.5 µM (inactive)
same,EC50,[15],0.185 µM (active)
Cc1ccc(-n2c(C)cc(C(=O)Cn3nc(C(=O)O)c4ccccc4c3=O)c2C)cc1,AC50,[16],5.3 µM (active)
Cc1cc(C(=O)CSc2nnc3scc(-c4ccccc4)n23)c(C)n1-c1cc(F)ccc1F,IC50,[17],> 99 µM (inactive)
same,IC50,[18],> 99 µM (inactive)
O=C(c1ccc([N+](=O)[O-])o1)N1CCN(c2nc3ccc(F)cc3s2)CC1,IC50,[19],< 0.1 µM (active)
same,EC50,[20],3.64 µM (active)
same,EC50,[21],0.384 µM (active)
C[n+]1cccc2c(Br)ccc([O-])c21,IC50,[22],92 µM (active)
same,AC50,[23],7.45 µM (active)
same,IC50,[24],1.64 µM (active)
same,IC50,[25],> 42.8 µM (inactive)
same,IC50,[26],4.18 µM (active)
